Reference: patent publication US20190084939A1, “ANALOGS OF FEXARAMINE AND METHODS OF MAKING AND USING” (Salk Institute for Biological Studies, priority 2014, published 2019)
pEC50: −log10 of the molar value. Where two headings read alike, the source gives them in different places.

How the values were obtained:
Human FXR full length = molecular target: T1, Human FXR full length (Homo sapiens, UniProt Q96RI1); experiment: FXR activity screen, luciferase reporter in transfected CV-1 cells; format: cell-based
T1 construct: Human FXR full length and RXR full length was obtained from Ronald Evans' laboratory; expressed in transfected cells; host or cells: CV-1 cells
T1 sequence (Q96RI1 1-476 isoform Q96RI1-1): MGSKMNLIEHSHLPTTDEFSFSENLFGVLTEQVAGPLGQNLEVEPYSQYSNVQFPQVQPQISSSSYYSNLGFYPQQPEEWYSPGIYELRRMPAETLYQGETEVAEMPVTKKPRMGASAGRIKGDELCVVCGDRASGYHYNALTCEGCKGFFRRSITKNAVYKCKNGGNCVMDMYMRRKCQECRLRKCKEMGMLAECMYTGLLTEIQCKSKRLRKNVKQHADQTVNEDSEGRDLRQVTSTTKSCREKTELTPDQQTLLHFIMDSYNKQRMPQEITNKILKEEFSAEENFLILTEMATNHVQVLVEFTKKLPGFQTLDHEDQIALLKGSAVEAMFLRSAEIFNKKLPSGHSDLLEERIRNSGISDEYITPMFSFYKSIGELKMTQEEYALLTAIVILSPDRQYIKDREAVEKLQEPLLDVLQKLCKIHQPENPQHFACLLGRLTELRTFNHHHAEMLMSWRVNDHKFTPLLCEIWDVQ
T1 sequence (P19793 1-462 partner): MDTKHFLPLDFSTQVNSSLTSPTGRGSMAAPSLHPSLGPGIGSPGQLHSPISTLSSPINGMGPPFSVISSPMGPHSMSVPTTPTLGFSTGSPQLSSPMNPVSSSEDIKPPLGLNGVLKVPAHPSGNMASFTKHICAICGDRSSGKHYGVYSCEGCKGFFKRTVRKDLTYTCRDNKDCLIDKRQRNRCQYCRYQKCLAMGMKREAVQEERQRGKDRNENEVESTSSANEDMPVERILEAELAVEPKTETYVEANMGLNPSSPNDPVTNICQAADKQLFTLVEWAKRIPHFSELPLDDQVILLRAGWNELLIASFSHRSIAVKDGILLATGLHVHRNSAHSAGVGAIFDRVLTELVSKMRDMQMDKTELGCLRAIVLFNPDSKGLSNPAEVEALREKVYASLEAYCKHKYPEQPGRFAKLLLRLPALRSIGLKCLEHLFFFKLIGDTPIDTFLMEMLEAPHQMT
Outline: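 CV-1 cells in charcoal-stripped serum, transfected with full-length human FXR, RXR, FXRE-luciferase reporter and β-Gal; 48 h expression, then 24 h compound (0.001–100 μM, quadruplicate, 1:1000 DMSO dilution). Luciferase normalized to β-galactosidase; fold induction vs untreated, efficacy relative to fexaramine, EC50 by non-linear regression.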

ob/ob mice = experiment: fexaramine and deuterated analogs in ob/ob mice, 2 weeks; format: in vivo; settings: 2 weeks at 50 mg/kg PO
Experimental: An in vivo study of fexaramine and selectively-deuterated fexaramine compounds (FIG. 29A) was performed. Briefly, ob/ob mice were treated daily with vehicle, Fex, or deuterated analogs (50 mg kg^−1) by oral (PO) gavage for 2 weeks. Subsequently, body weight, body temperature, fasting blood glucose and insulin levels, insulin secretion, and GLP1 section were measured, and glucose tolerance tests (GTTs) performed.

[1] = test system: FXR target gene expression in the liver; experiment: liver gene expression by QPCR after 14 days oral FEX-D or SALK110; format: in vivo, Mice; settings: 50 mg/kg PO 14 days
Experimental: Mice were treated daily with vehicle, FEX-D, or SALK110 (NSSK00110, 50 mg kg^−1) (see FIG. 29A) by oral (PO) gavage for 14 days, with tissues collected 1 hour after the final treatment. Gene expression changes in the liver were measured by QPCR.

human L cells = experiment: oxygen consumption rate of intestinal L cells (Seahorse analyzer); format: cell-based; settings: fexaramine 1 μM for 24 hours
Experimental: FIG. 41 is a graph showing the effects of modulating FXR activity on the oxidative metabolism of intestinal L cells. L cells were treated with the FXR agonist fexaramine, the FXR antagonist Guggulsterone, or a combination of both, prior to measurement of their oxygen consumption rate (OCR) in a Seahorse analyzer.
To examine the effects of FXR in the secretion of GLP-1, the metabolic changes induced in human L cells was measured by treatment with the FXR agonist, fexaramine and an FXR antagonist guggulsterone. Treatment of L cells with fexaramine (1 μM for 24 hours) lead to an increase in the oxygen consumption rate (OCR), consistent with increased mitochondrial activity and consequently, an increased energetic state (FIG. 41). The reverse effect was seen after treatment with the FXR antagonist, guggulsterone, with lower OCR after drug treatment.

pEC50 (Human FXR full length; first round, CV-1 cells, 24 hours, read-out: 1st RND EC50) | pEC50 (Human FXR full length; retest, read-out: EC50 (retested)) | pEC50 (Human FXR full length; second round, CV-1 cells, 24 hours, read-out: 2nd RND EC50) | Structure (SMILES) | core body temperature (ob/ob mice) | fasting blood glucose levels (ob/ob mice) | expression of FXR target genes SHP and BSEP in the liver [1] | oxygen consumption rate (OCR) (human L cells)
6.75 | 7.01 | 6.82 | [2H]C(c1ccc(-c2ccc(N(C)C)cc2)cc1)N(C(=O)C1CCCCC1)c1cccc(/C=C/C(=O)OC)c1 (stereo not shown) [NSSK00077, methyl (E)-3-(3-(N-((4′-(dimethylamino)-[1,1′-biphenyl]-4-yl)methyl-d)cyclohexanecarboxamido)phenyl)acrylate] | more effective at increasing core body temperature than Fex | significantly reduced | fail to alter | –
– | – | – | C/C=C1\C(=O)C[C@H]2[C@@H]3CCC4=CC(=O)CC[C@]4(C)[C@H]3CC[C@]12C [guggulsterone] | – | – | – | lower OCR
